Test [1] concerns cRBC. Kind of test: Hemagglutination activity. In kind it is cell-based, chicken. The conditions noted are these: 0.4% v/v cRBC, room temperature, 2 hours. The protocol: Immunovir A, B, C, and D, or concanavalin A with different concentrations were added into 2 mL of normal saline 0.4% v/v cRBC suspension in Kahn tube. The solution was mixed thoroughly and kept at room temperature for 2 hours to observe hema-agglutination.

In test [2] the test system is HIV1. Kind of test: Anti-HIV1 activity in human venous blood mononuclear cells (HIV1P24 expression). In kind it is cell-based. The conditions noted are these: 21 days culture; FIG. 6. The protocol:
Mononuclear cells derived from human venous blood (1×10^7 cells/0.80 mL) were suspended in capped Greiner incubation tube with R20C containing 40 ug/mL rIL-2, and 0.10 mL of immunovir (40 ug/mL or diluted with 4 fold) or, as a comparison, AZT (100, 10, or 1 ug/mL), then incubated in 5% CO2 incubator at 36-37° C. for 21 days.
Cells were precipitated by centrifugation (250 g, 5 minutes) every 3 days, and culture medium were replaced to fresh ones with identical ingredients. For antigen expression, cells were stained by mouse anti-HIV1P24 IgG1 and rabbit anti-mouse IgG1-FITC.
The percentage of cells with HIV1P24 gag gene expression, i.e., the ratio of fluorescent cells detected by indirect fluorescent antibody technique was calculated.

Test [3] concerns mMφ/Mo. The experiment in a line: Effect on mice macrophages/mononuclear cells activities in vivo after CP immunosuppression. Conditions: immunovirs 10 mg/kg or AZT 20 mg/kg via tail vein day 2 to 5; CP-treated mice; FIG. 5. The protocol:
Two mice of each group were injected with 10 mg/kg.b.w of immunovir (O, mixture), immunovir A, B, C, D, or 20 mg/kg.b.w of AZT via tail vein in the afternoon from day 2 to day 5, respectively. Each mouse's abdominal cavity was injected with 0.5 mL of RTAC in the afternoon of day 5, and mMφ/Mo were collected from each mouse's abdominal cavity with 10 mL of R7 1⁄2C in the afternoon of day 6. Basal medium rich in deposit cells were taken, and 0.40 mL was pipetted into two wells of flat-bottomed 24-well Falcon culture dish. After incubation with 5% CO2 for 6 hours, 0.10 mL of cRBC (1%) was added into each well and incubation was carried out for 6 hours or overnight. Then suspended cells, i.e., cRBC, were sucked out, the well was gently washed with 0.5 mL of RPMI 1640, and 0.40 mL of RBMI 1640 and 5 ul of Liu Stain B solution were added again to stain mMφ, whereas cRBCs were unstainable. CP immuno suppression was removed by Immunovir(mix), Immunovir […]. but not AZT in mouse's body, and the efficacy of Mφ/Mo activity increased as shown in FIG. 5.

Test [4] in a line: Bioactivity of separated immunovir components (test not specified).
In test [5] the test system is Yac-1 cells. The experiment in a line: Mononuclear killer cell activity derived from mouse's spleen (51Cr release from Yac-1 cells). In kind it is in vivo, BALB/c mice. Conditions: CP 200 and 100 mg/kg day 1 and 2; immunovir 10 mg/kg every day; spleens day 7.
Method: Twenty male BALB/c mice aged 8 weeks were divided into group A, B, C, and D. Mice in group A were injected with 0.20 mL of normal saline intravenously. […] Group C received immunovir 10 mg/kg.b.w every day. Group D received CP as group B and immunovir as Group C. All mice's spleens were excised at day 7 and spleen-derived mononuclear cells were isolated by Ficol-paque centrifugation.
Yac-1 cells (2×10^6/mL) were labeled with R20C containing 1 uc/mL of ^51Cr-chromate for 60 minutes at 37° C.
Mouse's spleen-derived mononuclear cells (killer cells) (3×10^6) and ^51Cr-chromate-labeled Yac-1 cells (6×10^6) were suspended altogether in 1.0 mL of R20C medium and incubated at 37° C. for 150 minutes, centrifuged with 250 g for 10 minutes, then 0.50 mL of supernatant was taken and dried in the bottle.
Radioactivity was measured by liquid scintillation and toluene-PPO-POPOP was used as a scintillant.
In test [6] the test system is guinea pig peritoneal derived adherent macrophages (gMφ). The experiment in a line: Effect on cellular immunity in vitro: gMφ killer cell activity against cRBC with or without cyclophosphamide. Format: cell-based. The conditions noted are these: second 20-hours incubation without CP; FIG. 4-1.
From the text: The effector (killer) cells for this experiment were adherent macrophages (gMφ) derived from guinea pig's peritoneal fluid cultured with RTAG (RPMI 1640 enriched with 7.5% v/v guinea pig serum). Cyclophosphamide (CP) was used as an immunosuppressive agent. Chicken red blood cells (cRBC) as target cells.
The experiment consisted of four series of experiments: gMφ+cRBC, gMφ+Imm+cRBC, gMφ+CP+cRBC, and gMφ+CP+Imm+cRBC, and immunovir (Imm) as immune response modifier.
A 200 to 250 g guinea pig was injected with 1 mL of thioglycolate medium, after 20 hours adherent macrophages derived from abdominal cavity (gMφ) were collected by aid of RPMI 1640, suspended in RTAG, then 0.9 mL of solution was pipetted into thirteen Falcon 12-well culture plates. The plates for group 1 and 2 to group 4 were 1 and 3, respectively. […] In other words, each well was filled with 1 ug/mL CP in group 2, 10 ug/mL in group 3, and 100 ug/mL in group 4. After incubation in a 5% CO2 incubator (35-37° C.), the medium in each well was replaced with fresh R7½G from group 1 (only 1 plate for control) to group 4. Then Imm was added from lane 1 to lane 4 (3 wells per lane) that the final concentration were 0, 0.1, 1, and 10 ug/mL, respectively. That was to say, from group 2 to group 4, lane 1 was a CP control, and lane 1 in plate 1 was gMφ control. […]

With concanavalin A, the “nature of hema-agglutination of cRBC (resuspension by shaking)” value in test [1] was “firmly agglutinated with concanavalin A and could not be resuspended by shaking”.

Consider `Cc1cn([C@H]2C[C@H](N=[N+]=[N-])[C@@H](CO)O2)c(=O)[nH]c1=O` [AZT], for which the anti-HIV1 activities compared entry in test [2] was “approximately the same”. Moreover, the “removal of CP immuno suppression in mouse's body (Mφ/Mo activity)” value in test [3] is listed as “not”.

Consider `CO[C@H]1O[C@H](CO)[C@@H](O)[C@H](O)[C@@H]1O` [methyl-a-mannopyranoside], for which the bioactivity result in test [4] is given as “low bioactivity”.

For `O=P1(N(CCCl)CCCl)NCCCO1` (stereo not drawn) [CP, Cyclophosphamide], the “radioactivity released (51Cr from Yac-1 cells)” value in test [5] was “inhibited”. Besides, the “activity of gMφ after removal of CP” value in test [6] is “unrecoverable”.

The values are drawn from patent US20160033480A1, “Immunovir and Components, Immunovir A, B, C, D Utility and Useful Processes” (priority 2013, published 2016).
